System: Stage III Colon Cancer
Assay: Time to tumor recurrence in patients with stage III colon cancer, by type of adjuvant therapy (retrospective, log-rank test)
Format: in vivo, human
Protocol: Methods and Patients: One hundred and twenty five patients with stage III colon cancer who were treated with 5-FU-based adjuvant chemotherapy at the University of Southern California/Norris Comprehensive Cancer Center (USC/NCCC) or the Los Angeles County/University of Southern California Medical Center (LAC/USCMC), between 1992 and 2007, were eligible for the present study. This study was conducted at the USC/NCCC and approved by the Institutional Review Board (IRB) of the University of Southern California for Medical Sciences. Patient data were collected retrospectively through chart review. Informed consent was signed by all patients involved in the study.
Statistical analysis: The primary endpoint in this study was time to tumor recurrence (TTR) in stage III colon cancer patients, which was defined as the time from the date of diagnosis of stage III colon cancer to the date of first recurrence, […], or until last contact if the patient was free of any tumor recurrence at the time of last contact. If a patient had not recurred, then TTR was censored at the time of death or at the last follow-up. The associations of time to tumor recurrence with patient's clinico-pathologic characteristics (age, sex, race, tumor grade, T-stage, N-stage and type of chemotherapy) were assessed using univariate survival analyses (log-rank test).
The association between each polymorphism and time to recurrence was examined using Kaplan-Meier curves and log-rank test. The distributions of polymorphisms across demographic characteristics were examined using Fisher's exact test. In the univariate survival analysis, the Pike estimate of relative risk (RR) and its associated 95% confidence interval (95% CI) was based on the log-rank test.

SMILES: O=c1[nH]cc(F)c(=O)[nH]1 [5-FU, 5-Fluorouracil]
- Median time to recurrence (TTR) (patients with stage III colon cancer, by adjuvant therapy, '+' = estimates were not reached): 3.9 yrs
- Probability ± SE of 3-year recurrence (stage III colon cancer, by adjuvant therapy, Greenwood SE): 0.47 ± 0.06
- Relative risk (tumor recurrence, stage III colon cancer, reference = 5-FU group, Pike estimate based on log-rank test): 1
